Experimental findings from ChEMBL document CHEMBL3098127, “A highly predictive 3D-QSAR model for binding to the voltage-gated sodium channel: design of potent new ligands” (Bioorg Med Chem, 2014) are described below.

One assay is filed under the species Rattus norvegicus. To be noted: Cerebral cortex.
Assay [1] is described as follows: Displacement of [3H]BTX-B from neuronal voltage-gated sodium channel in rat cerebral cortex synaptoneurosomes after 60 mins by scintillation counting. Format: tissue-based. On the technique in general: Loss of bound radioactivity is the signal in a displacement assay; it reports binding, not function.

As for `CC1CCCCN1CCCOC(=O)c1ccccc1` (stereo not drawn), the logIC50 in the assay listed under Rattus norvegicus came to 1.11.
Still for that read-out and setting: the figure for `CCCCC1(c2ccccc2)NC(=O)N(C)C1=O` (stereo not drawn) is 2.45.
On the same count and under the same terms, next, `CCCCCC(O)(C(=O)NCCCc1ccccc1)c1ccccc1` (stereo not drawn): 0.72; `CCN(CC)CCOC(=O)C1(C2CCCCC2)CCCCC1`: 0.45.
For `CCCCCC1(c2ccccc2)NC(=O)N(CN2CCN(C(c3ccccc3)c3ccccc3)CC2)C1=O` (stereo not drawn), the logIC50 in the assay listed under Rattus norvegicus worked out at 0.11.
On the same count and under the same terms, the figure for `CCN(CC)CCOC(=O)c1ccc(N)cc1` is 2.04.
In the assay listed under Rattus norvegicus, `CC12C(=O)NC(=O)N1CCc1ccccc12` (stereo not drawn) returned a logIC50 of 2.86.
Compound `CCCCCCCC(O)(C(N)=O)c1ccccc1` (stereo not drawn) came in with a logIC50 in the assay listed under Rattus norvegicus of 0.95.
In turn, `Cc1cccc(C)c1NC(=O)C(C)N` (stereo not drawn) came in with a logIC50 in the assay listed under Rattus norvegicus of 2.3.
As for `c1ccc(C(CCCNC(c2ccccc2)c2ccccc2)c2ccccc2)cc1`, in assay [1], the half-maximal inhibitory concentration (IC50) – broadly, the concentration that inhibits the measured activity by half – amounted to 1330 nM. This counts as single-digit micromolar.
In the case of `OCCN1CCN(CCCN2c3ccccc3Sc3ccc(C(F)(F)F)cc32)CC1`, the logIC50 in the assay listed under Rattus norvegicus was 0.57.
`Clc1ccc(C(c2ccc(Cl)cc2)[n+]2ccn(CC(OCc3ccc(Cl)cc3Cl)c3ccc(Cl)cc3Cl)c2)cc1` (stereo not drawn): the logIC50 in the assay filed under Rattus norvegicus is 0.85.
For the compound `C[N+](C)(CC(=O)Nc1ccccc1)CC(=O)Nc1ccccc1`, in the assay filed under Rattus norvegicus, the logIC50 was 0.59.
On the same count and under the same terms, the figure for `CC(C)CNCCOC(=O)c1ccc(N)cc1` is 1.74; for `CC(C)COCC(CN(Cc1ccccc1)c1ccccc1)N1CCCC1` (stereo not drawn) it is -0.08; for `O=C1NC(=O)C2(CCCCc3ccccc32)N1` (stereo not drawn) it is 2.4.
Regarding `CCOC(=O)C1=C(C)NC(C)=C(C(=O)OC)C1c1cccc(Cl)c1Cl` (stereo not drawn), the logIC50 in the assay listed under Rattus norvegicus amounted to 1.57.
Take `CCCCCCCCCC(O)(C(N)=O)c1ccccc1` (stereo not drawn): in the assay filed under Rattus norvegicus, the logIC50 was 0.81.
In turn, `CCCCCC1(c2ccccc2)NC(=O)N(Cc2ccccc2)C1=O` (stereo not drawn) registered a logIC50 in the assay filed under Rattus norvegicus of 0.84.
Take `CCC(OCCCc1ccccc1)(C(=O)CCCCc1ccccc1)c1ccccc1` (stereo not drawn): the logIC50 in the assay listed under Rattus norvegicus turned out to be 0.63.
For `O=C1NC(=O)C2(CCCc3ccccc32)N1` (stereo not drawn), in the assay filed under Rattus norvegicus, the logIC50 came to 2.93.
As for `CCC(O)(C(=O)NCCC(c1ccccc1)c1ccccc1)c1ccccc1` (stereo not drawn), in the assay listed under Rattus norvegicus, the logIC50 was determined as 0.91.
Still for that read-out and setting: next, `CCC(O)(C(=O)NCCc1ccccc1)c1ccccc1` (stereo not drawn): 1.48.
`Cc1ccc(C(=O)CCCN2CCN(C(c3ccccc3)c3ccccc3)CC2)cc1C` yielded an IC50 in assay [1] of 156 nM. That is a sub-micromolar value.
With `CCC(O)(C(=O)NCCCc1ccccc1)c1ccccc1` (stereo not drawn), in the assay listed under Rattus norvegicus, the logIC50 is 1.54.
The same measure, in the same setting: next, `OC(CCCN1CCCCC1)(c1ccccc1)c1ccccc1`: 0.53; `NCCCCCCNS(=O)(=O)c1cccc2ccccc12`: 1.34; `CCCCCC1(c2ccccc2)NC(=O)N(S(C)(=O)=O)C1=O` (stereo not drawn): 2.05.
In the case of `CCCCCC(O)(C(=O)NCCC(c1ccccc1)c1ccccc1)c1ccccc1` (stereo not drawn), the logIC50 in the assay listed under Rattus norvegicus was 0.4.
For `CCCCCCCCCC1(c2ccccc2)NC(=O)N(S(C)(=O)=O)C1=O` (stereo not drawn), the logIC50 in the assay filed under Rattus norvegicus was 1.1.
As for `c1ccc(CCN2CCN(C(c3ccccc3)c3ccccc3)CC2)cc1`, the IC50 in assay [1] was 257 nM.
In the assay listed under Rattus norvegicus, `CCCNC(C)C(=O)Nc1ccccc1C` (stereo not drawn) came in with a logIC50 of 1.73.
Same read-out and setting: next, `COc1cc2nc(N3CCN(C(=O)c4ccco4)CC3)nc(N)c2cc1OC`: 1.33.
`Fc1ccc(C(CCCN2CCN(C(c3ccccc3)c3ccccc3)CC2)c2ccc(F)cc2)cc1` returned an IC50 in assay [1] of 119 nM.
`COc1ccc(CCN(C)CCCC(C#N)(c2cc(OC)c(OC)c(OC)c2)C(C)C)cc1OC` (stereo not drawn) yielded a logIC50 in the assay listed under Rattus norvegicus of 0.56.
With `Cc1ccc2c(S(=O)(=O)NCCCCCCN)cccc2c1`, the logIC50 in the assay filed under Rattus norvegicus came out at 1.08.
With `O=C(CCCN1CCC(O)(c2ccc(Cl)cc2)CC1)c1ccc(F)cc1`, the logIC50 in the assay filed under Rattus norvegicus amounted to 0.08.
`CCCCCC1(c2ccccc2)NC(=O)NC1=O` (stereo not drawn) showed a logIC50 in the assay listed under Rattus norvegicus of 1.59.
With `c1ccc(C(CCCCNC(c2ccccc2)c2ccccc2)c2ccccc2)cc1`, the IC50 in assay [1] is 562 nM.
`CCCOc1cc(N)ccc1C(=O)OCCN(CC)CC`: in the assay listed under Rattus norvegicus, the logIC50 stood at 1.38.
Consider `COC(=O)C1=C(C)NC(C)=C(C(=O)OCC(C)C)C1c1ccccc1[N+](=O)[O-]` (stereo not drawn), for which the logIC50 in the assay listed under Rattus norvegicus turned out to be 1.41.
For the compound `CN(C)C(=O)C(CCN1CCC(O)(c2ccc(Cl)cc2)CC1)(c1ccccc1)c1ccccc1`, the logIC50 in the assay filed under Rattus norvegicus was -0.56.
Still for that read-out and setting: the figure for `CCOC(=O)C1=C(C)NC(C)=C(C(=O)OC)C1c1cccc([N+](=O)[O-])c1` (stereo not drawn) is 1.56; for `COc1cc(C(=O)OCCCN2CCCN(CCCOC(=O)c3cc(OC)c(OC)c(OC)c3)CC2)cc(OC)c1OC` it is -0.22.
The compound `Fc1ccc(C(CCCNCCCc2ccccc2)c2ccc(F)cc2)cc1` gave an IC50 in assay [1] of 229 nM.
Compound `CCCC1(c2ccccc2)NC(=O)N(S(C)(=O)=O)C1=O` (stereo not drawn) returned a logIC50 in the assay listed under Rattus norvegicus of 2.7.
Same read-out and setting: next, `CCCCOc1cc(C(=O)OCCN(CC)CC)ccc1N`: 0.46; `O=C1NC(=O)C2(CCc3ccccc32)N1` (stereo not drawn): 3.32.
As to `c1ccc(C(CCCCCCNC(c2ccccc2)c2ccccc2)c2ccccc2)cc1`, the IC50 in assay [1] came out at 560 nM. In other words, the sub-micromolar range.
The compound `CCCCCCCCCC1(c2ccccc2)NC(=O)NC1=O` (stereo not drawn) returned a logIC50 in the assay filed under Rattus norvegicus of 0.7.
On the same count and under the same terms, the figure for `CCCCCC(O)(C(=O)NCCc1ccccc1)c1ccccc1` (stereo not drawn) is 0.7; for `CCCCN(CCCC)CCCOC(=O)c1ccc(N)cc1` it is 0.43.
The same measure, in the same setting: next, `CCCCCC(O)(C(=O)N1CCN(C(c2ccccc2)c2ccccc2)CC1)c1ccccc1` (stereo not drawn): 0.68; `CCCCCCC1(c2ccccc2)NC(=O)NC1=O` (stereo not drawn): 1.11; `CCCCCCCCCC1(c2ccccc2)NC(=O)N(Cc2ccccc2)C1=O` (stereo not drawn): 0.71.
The same measure, in the same setting: next, `O=C1NC(=O)C2(CCCCCc3ccccc32)N1` (stereo not drawn): 2.4.
With `CN(C)C(=O)C(CCN1CCC(O)(c2ccc(Cl)c(C(F)(F)F)c2)CC1)(c1ccccc1)c1ccccc1`, the logIC50 in the assay filed under Rattus norvegicus is 0.55.
As for `CCCCCCCC1(c2ccccc2)NC(=O)NC1=O` (stereo not drawn), the logIC50 in the assay listed under Rattus norvegicus is 0.7.
Still for that read-out and setting: next, `CCCCOc1cc(C(=O)NCCN(CC)CC)c2ccccc2n1`: 0.78; `O=C1NC(=O)C(c2ccccc2)(c2ccccc2)N1`: 1.6.
Still for that read-out and setting: the figure for `CCCCCCCC1(c2ccccc2)NC(=O)N(S(C)(=O)=O)C1=O` (stereo not drawn) is 1.11.
`c1ccc(CCCN2CCN(C(c3ccccc3)c3ccccc3)CC2)cc1`: the IC50 in assay [1] turned out to be 192 nM.
`CC(Cc1ccccc1)NCCC(c1ccccc1)c1ccccc1` (stereo not drawn) yielded a logIC50 in the assay filed under Rattus norvegicus of -0.52.
With `c1ccc(CCCNCCc2ccccc2)cc1`, the IC50 in assay [1] was 340 nM. This lies in the sub-micromolar range.
In the case of `CCCCCCCC1(c2ccccc2)OC(=O)NC1=O` (stereo not drawn), the logIC50 in the assay filed under Rattus norvegicus was determined as 1.48.
Same read-out and setting: the figure for `CCCCCC1(c2ccccc2)OC(=O)NC1=O` (stereo not drawn) is 2.5.
`Cc1cccc(C)c1NC(=O)C1CCCCN1C` (stereo not drawn) yielded a logIC50 in the assay filed under Rattus norvegicus of 2.28.
Regarding `COC(=O)[C@H]1[C@@H](OC(=O)c2ccccc2)C[C@@H]2CC[C@H]1N2C`, the logIC50 in the assay listed under Rattus norvegicus was determined as 1.69.
Compound `CCC1(c2ccccc2)NC(=O)N(CN2CCN(C(c3ccccc3)c3ccccc3)CC2)C1=O` (stereo not drawn) registered a logIC50 in the assay filed under Rattus norvegicus of 0.52.
Still for that read-out and setting: the figure for `CCOc1ccc(/N=C(\C)Nc2ccc(OCC)cc2)cc1` is 0.23; for `CCCCOc1ccc(OCCCN2CCOCC2)cc1` it is 1; for `CCCNC(C)(C)COC(=O)c1ccccc1` it is 0.88.
As for `CC(C)(C)c1ccc(C(=O)CCCN2CCN(C(c3ccccc3)c3ccccc3)CC2)cc1`, the concentration for half-maximal inhibition (IC50) in assay [1] is 128 nM.
Compound `CCN(CC)CC(=O)Nc1c(C)cccc1C` displayed a logIC50 in the assay listed under Rattus norvegicus of 1.68.
With `c1ccc(C(CCCCCNC(c2ccccc2)c2ccccc2)c2ccccc2)cc1`, the IC50 in assay [1] turned out to be 345 nM.
On the same count and under the same terms, next, `c1ccc(C(CCNC(c2ccccc2)c2ccccc2)c2ccccc2)cc1`: 760 nM.
In the assay filed under Rattus norvegicus, `CCOC(=O)c1ccc(N)cc1` yielded a logIC50 of 2.86.
On the same count and under the same terms, next, `CCCCc1cc2ccccc2c(OCCN(C)C)n1`: 0.53.
`O=C(NCCN1CCN(C(c2ccccc2)c2ccccc2)CC1)c1ccccc1`: in assay [1], the IC50 is 283 nM.
On to `c1ccc(CCCNCCCc2ccccc2)cc1`, for which, in assay [1], the IC50 came out at 252 nM.
For `CCC1(c2ccccc2)NC(=O)N(S(=O)(=O)c2ccc(C)cc2)C1=O` (stereo not drawn), the logIC50 in the assay listed under Rattus norvegicus was determined as 1.7.
In assay [1], `c1ccc(C(CNC(c2ccccc2)c2ccccc2)c2ccccc2)cc1` gave an IC50 of 3160 nM.
`CC(O)(C(=O)N1CCN(C(c2ccccc2)c2ccccc2)CC1)c1ccccc1` (stereo not drawn) had a logIC50 in the assay filed under Rattus norvegicus of 0.8.
Same read-out and setting: next, `CCCC1(c2ccccc2)NC(=O)NC1=O` (stereo not drawn): 2.21; `CN(C)CCC(c1ccccc1)c1ccccn1` (stereo not drawn): 1.52; `CCCC1(c2ccccc2)OC(=O)NC1=O` (stereo not drawn): 2.65.
`Fc1ccc(C(CCCNCCc2ccccc2)c2ccc(F)cc2)cc1` yielded an IC50 in assay [1] of 1230 nM. In other words, the single-digit micromolar range.
In the case of `CCN1C(=O)NC(=O)C1(C)c1ccccc1` (stereo not drawn), the logIC50 in the assay listed under Rattus norvegicus stood at 2.4.
